The NIST ThermoML archive (doi:10.1016/j.jct.2018.08.005)

Assay: xn = mol fraction of the nth substance listed
Conditions: Liquid; for mass density: Vibrating tube method; for speed of sound: Frequency=3 MHz, Pulse-echo method

CCOC(F)(C(F)(F)C(F)(F)C(F)(F)F)C(F)(C(F)(F)F)C(F)(F)F (stereo not given) [2-trifluoromethyl-3-ethoxydodecafluorohexane] + CC(C)OC(C)C
Conditions	mass density, 333.15 K [kg/m3]	mass density, 343.15 K [kg/m3]	mass density, 353.15 K [kg/m3]	mass density, 363.15 K [kg/m3]	mass density, 373.15 K [kg/m3]	mass density, 383.15 K [kg/m3]	mass density, 393.15 K [kg/m3]	speed of sound, 343.15 K [m/s]	speed of sound, 353.15 K [m/s]
100 kPa, x1 = 0.375	–	1091.4	–	–	–	–	–	588	–
100 kPa, x1 = 0.5	–	1197	–	–	–	–	–	563	–
100 kPa, x1 = 0.625	–	1291.8	1271.2	–	–	–	–	550.5	–
100 kPa, x1 = 0.75	–	1376.3	1355.1	–	–	–	–	540.2	512.6
10000 kPa, x1 = 0.25	–	1000.6	986.5	972.2	957.5	942.8	927.9	–	–
10000 kPa, x1 = 0.375	–	1121.3	1105.6	1089.6	1074	1058	1041.6	–	–
10000 kPa, x1 = 0.5	–	1229.2	1212.9	1196.4	1179.6	1162.6	1145.1	–	–
10000 kPa, x1 = 0.625	–	1325.6	1308.2	1290.3	1272.3	1254.2	1235.9	–	–
10000 kPa, x1 = 0.75	–	1411.1	1393	1374.4	1355.8	1336.7	1317.8	–	–
20000 kPa, x1 = 0.25	–	1021.9	1009.3	996.8	983.8	971.3	958.4	792.6	767.9
20000 kPa, x1 = 0.375	–	1145.1	1131.2	1117.1	1103.6	1089.6	1075.7	745.6	724.5
20000 kPa, x1 = 0.5	–	1254.7	1240.1	1225.6	1210.9	1196.3	1181.2	714	692.8
20000 kPa, x1 = 0.625	–	1352.4	1337	1321.2	1305.3	1289.7	1273.8	697.6	676.5
20000 kPa, x1 = 0.75	–	1438.8	1422.7	1406.2	1389.8	1373.1	1356.7	681.6	660.7
30000 kPa, x1 = 0.25	–	1039.6	1028.2	1016.8	1005	993.8	982.1	–	–
30000 kPa, x1 = 0.375	–	1164.8	1152.3	1139.3	1127.2	1114.7	1102.2	–	–
30000 kPa, x1 = 0.5	–	1275.9	1262.7	1249.3	1236	1223	1209.4	–	–
30000 kPa, x1 = 0.625	–	1374.8	1360.8	1346.4	1331.8	1317.8	1303.4	–	–
30000 kPa, x1 = 0.75	–	1462	1447.4	1432.1	1417.3	1402	1387.3	–	–
40000 kPa, x1 = 0.25	–	1055.2	1044.4	1033.8	1022.8	1012.6	1001.8	911.7	889.5
40000 kPa, x1 = 0.375	–	1182.1	1170.2	1158.1	1147.1	1135.6	1124	858.7	841.4
40000 kPa, x1 = 0.5	–	1294.4	1281.9	1269.5	1257.2	1245.4	1232.7	822.8	804.5
40000 kPa, x1 = 0.625	–	1394.4	1381.2	1367.8	1354.2	1341.5	1328	803.3	785.2
40000 kPa, x1 = 0.75	–	1482.3	1468.5	1454.3	1440.5	1426.5	1412.8	783.8	765.7
50000 kPa, x1 = 0.25	–	1068.8	1058.7	1048.7	1038.4	1028.9	1018.7	–	–
50000 kPa, x1 = 0.375	–	1197.3	1186	1174.8	1164.3	1153.6	1142.7	–	–
50000 kPa, x1 = 0.5	–	1310.8	1298.8	1287.3	1275.8	1264.7	1252.8	–	–
50000 kPa, x1 = 0.625	–	1411.7	1399.2	1386.6	1373.8	1361.9	1349.1	–	–
50000 kPa, x1 = 0.75	–	1500.3	1487.3	1473.8	1460.8	1447.6	1434.8	–	–
60000 kPa, x1 = 0.25	–	1081.1	1071.6	1062	1052.3	1043.2	1033.7	1007.3	986.5
60000 kPa, x1 = 0.375	–	1210.9	1200.3	1189.6	1179.7	1169.5	1159.3	949.5	935.6
60000 kPa, x1 = 0.5	–	1325.4	1314.2	1303.1	1292.2	1281.8	1270.5	911	894
60000 kPa, x1 = 0.625	–	1427.3	1415.5	1403.4	1391.2	1379.9	1368	889.2	872.6
60000 kPa, x1 = 0.75	–	1516.5	1504.2	1491.2	1478.9	1466.4	1454.2	867	850.4
70000 kPa, x1 = 0.25	–	1092.4	1083.3	1074.1	1064.8	1056.2	1047.2	–	–
70000 kPa, x1 = 0.375	–	1223.4	1213.3	1203	1193.7	1184	1174.3	–	–
70000 kPa, x1 = 0.5	–	1338.9	1328.1	1317.5	1307.2	1297.2	1286.5	–	–
70000 kPa, x1 = 0.625	–	1441.4	1430.3	1418.6	1407	1396.3	1385.1	–	–
70000 kPa, x1 = 0.75	–	1531.3	1519.5	1507	1495.3	1483.3	1471.7	–	–
80000 kPa, x1 = 0.25	–	1102.8	1094.2	1085.2	1076.3	1068.1	1059.3	1089.6	–
80000 kPa, x1 = 0.375	–	1234.9	1225.2	1215.5	1206.4	1197.2	1187.7	1026.7	1015.6
80000 kPa, x1 = 0.5	–	1351.3	1340.9	1330.8	1320.8	1311.3	1300.8	987	971
80000 kPa, x1 = 0.625	–	1454.6	1443.9	1432.6	1421.5	1411.4	1400.3	963.1	947.8
80000 kPa, x1 = 0.75	–	1544.9	1533.7	1521.5	1510.3	1498.8	1487.5	938.2	923.1
90000 kPa, x1 = 0.25	–	1112.5	1104.1	1095.5	1086.9	1079	1070.8	–	–
90000 kPa, x1 = 0.375	–	1245.7	1236.2	1227	1218.3	1209.3	1200.4	–	–
90000 kPa, x1 = 0.5	–	1362.8	1352.7	1343.1	1333.5	1324.3	1314.4	–	–
90000 kPa, x1 = 0.625	–	1466.8	1456.5	1445.6	1435	1425	1414.7	–	–
90000 kPa, x1 = 0.75	–	1557.6	1546.8	1534.9	1524.3	1513.1	1502.4	–	–
100000 kPa, x1 = 0.25	–	1121.5	1113.4	1105.1	1096.9	1089.2	1081.3	1161.8	1142.6
100000 kPa, x1 = 0.375	–	1255.8	1246.6	1237.5	1229.2	1220.6	1211.9	1095.1	–
100000 kPa, x1 = 0.5	–	1373.5	1363.8	1354.5	1345.3	1336.3	1326.8	1054.1	1039.1
100000 kPa, x1 = 0.625	–	1478.2	1468.2	1457.8	1447.4	1437.8	1428	1028.7	1014.4
100000 kPa, x1 = 0.75	1580.9	1569.5	1559	1547.4	1537.2	1526.4	1516	1001.7	987.2
110000 kPa, x1 = 0.25	1138.5	1130.1	1122.1	1114.2	1106.1	1098.7	1091	–	–
110000 kPa, x1 = 0.375	1274.2	1265.3	1256.3	1247.5	1239.6	1231.2	1222.8	–	–
110000 kPa, x1 = 0.5	1393.9	1383.8	1374.2	1365.3	1356.2	1347.6	1338.4	–	–
110000 kPa, x1 = 0.625	1499.9	1489.1	1479.2	1469.1	1459.1	1449.8	1440.1	–	–
110000 kPa, x1 = 0.75	1591.8	1580.8	1570.4	1559.3	1549.4	1538.8	1528.7	–	–
120000 kPa, x1 = 0.25	1146.4	1138.2	1130.4	1122.7	1114.8	1107.7	1100.3	–	–
120000 kPa, x1 = 0.375	1282.9	1274.2	1265.4	1257.1	1249.3	1241.3	1233	–	–
120000 kPa, x1 = 0.5	1403.2	1393.3	1384.1	1375.4	1366.6	1358.3	1349.4	–	–
120000 kPa, x1 = 0.625	1509.7	1499.3	1489.7	1479.8	1470.1	1461.2	1451.6	–	–
120000 kPa, x1 = 0.75	1602.1	1591.4	1581.4	1570.4	1560.8	1550.7	1540.7	–	–
130000 kPa, x1 = 0.25	1153.9	1145.9	1138.3	1130.7	1123.1	1116.1	1108.9	–	–
130000 kPa, x1 = 0.375	1291.2	1282.7	1274.2	1265.9	1258.3	1250.6	1242.6	–	–
130000 kPa, x1 = 0.5	1412.1	1402.5	1393.5	1385	1376.4	1368.1	1359.7	–	–
130000 kPa, x1 = 0.625	1519.2	1509.1	1499.7	1490	1480.5	1471.8	1462.5	–	–
130000 kPa, x1 = 0.75	1611.9	1601.6	1591.7	1580.9	1571.6	1561.7	1552.1	–	–
140000 kPa, x1 = 0.25	1160.9	1153.3	1145.6	1138.4	1130.8	1124.2	1117	–	–
140000 kPa, x1 = 0.375	1299	1290.7	1282.4	1274.6	1267	1259.6	1251.6	–	–
140000 kPa, x1 = 0.5	1420.5	1411.2	1402.4	1394.2	1385.7	1377.9	1369.3	–	–
140000 kPa, x1 = 0.625	1528.1	1518.2	1509	1499.7	1490.4	1481.9	1472.9	–	–
140000 kPa, x1 = 0.75	1621.2	1611.2	1601.4	1591	1581.8	1572.3	1562.7	–	–
